Reference: paper PMC12136037, “Type II kinase inhibitors that target Parkinson’s disease–associated LRRK2” (Science Advances, 2025)

Assays:
Test in all cases: 33PanQinase kinome-wide selectivity profile (Reaction Biology)
Type in all cases: biochemical
350 wild-type kinases [1] = molecular target: T1, 350 wild-type kinases (Homo sapiens, UniProt O94921); settings: kinase CDK14/CycY, ATP 0,1 µM, singlicate
T1 construct: purchased Reaction Biology (assay service)
Method: (§1) Compound RN341 was tested at two concentrations of 1 and 10 μM against a panel of 350 wild-type kinases in the ^33PanQinase assay. The assay was performed by Reaction Biology (www.reactionbiology.com/services/kinase-assays/kinase-panel-screening/).

350 wild-type kinases [2] = molecular target: T2, 350 wild-type kinases (Homo sapiens, UniProt Q06187); settings: kinase BTK, ATP 3 µM, singlicate
T2 construct: purchased Reaction Biology (assay service)
T2 sequence (Q06187 whole entry): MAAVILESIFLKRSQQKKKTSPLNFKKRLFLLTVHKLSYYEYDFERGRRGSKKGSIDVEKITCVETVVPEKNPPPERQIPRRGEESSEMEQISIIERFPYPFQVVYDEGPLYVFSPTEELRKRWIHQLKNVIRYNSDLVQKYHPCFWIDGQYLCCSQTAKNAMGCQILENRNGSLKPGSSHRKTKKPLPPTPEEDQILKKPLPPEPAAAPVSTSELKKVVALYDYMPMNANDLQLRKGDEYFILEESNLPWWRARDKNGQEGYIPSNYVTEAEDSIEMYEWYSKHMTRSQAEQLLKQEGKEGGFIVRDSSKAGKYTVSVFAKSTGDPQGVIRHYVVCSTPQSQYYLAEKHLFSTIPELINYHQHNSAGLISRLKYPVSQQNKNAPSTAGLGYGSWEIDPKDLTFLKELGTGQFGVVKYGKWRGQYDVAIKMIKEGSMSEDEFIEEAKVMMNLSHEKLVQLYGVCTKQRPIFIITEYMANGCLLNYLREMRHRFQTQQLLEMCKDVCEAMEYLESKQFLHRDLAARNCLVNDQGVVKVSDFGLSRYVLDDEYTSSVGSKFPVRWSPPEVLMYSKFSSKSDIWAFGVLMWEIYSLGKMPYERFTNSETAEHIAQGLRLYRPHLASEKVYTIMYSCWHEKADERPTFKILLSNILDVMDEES
Method: as §1

350 wild-type kinases [3] = molecular target: T3, 350 wild-type kinases (Homo sapiens, UniProt P33981); settings: 1 μM, TTK; read-out: TTK activity, % of control
T3 construct: purchased Reaction Biology (assay service)
Method: as §1

350 wild-type kinases [4] = molecular target: T4, 350 wild-type kinases (Homo sapiens, UniProt P31751); settings: kinase AKT2, ATP 10 µM, singlicate
T4 construct: purchased Reaction Biology (assay service)
Method: as §1

350 wild-type kinases [5] = molecular target: T5, 350 wild-type kinases (Homo sapiens, UniProt Q9UQB9); settings: kinase AuroraC, ATP 3 µM, singlicate
T5 construct: purchased Reaction Biology (assay service)
Method: as §1

350 wild-type kinases [6] = molecular target: T6, 350 wild-type kinases (Homo sapiens, UniProt Q96RR4); settings: kinase CAMKK2, ATP 3 µM, singlicate
T6 construct: purchased Reaction Biology (assay service)
Method: as §1

350 wild-type kinases [7] = molecular target: T7, 350 wild-type kinases (Homo sapiens, UniProt O43293); settings: kinase DAPK3, ATP 0,1 µM, singlicate
T7 construct: purchased Reaction Biology (assay service)
Method: as §1

350 wild-type kinases [8] = molecular target: T8, 350 wild-type kinases (Homo sapiens, UniProt P49336); settings: kinase CDK8/CycC, ATP 1 µM, singlicate
T8 construct: purchased Reaction Biology (assay service)
Method: as §1

350 wild-type kinases [9] = molecular target: T9, 350 wild-type kinases (Homo sapiens, UniProt P36894); settings: kinase BMPR1A, ATP 3 µM, singlicate
T9 construct: purchased Reaction Biology (assay service)
Method: as §1

350 wild-type kinases [10] = molecular target: T10, 350 wild-type kinases (Homo sapiens, UniProt Q09013); settings: kinase DMPK, ATP 0,1 µM, singlicate
T10 construct: purchased Reaction Biology (assay service)
Method: as §1

350 wild-type kinases [11] = molecular target: T11, 350 wild-type kinases (Homo sapiens, UniProt P78527); settings: kinase DNAPK, ATP 1 µM, singlicate
T11 construct: purchased Reaction Biology (assay service)
Method: as §1

350 wild-type kinases [12] = molecular target: T12, 350 wild-type kinases (Homo sapiens, UniProt Q13627); settings: kinase DYRK1A, ATP 1 µM, singlicate
T12 construct: purchased Reaction Biology (assay service)
Method: as §1

350 wild-type kinases [13] = molecular target: T13, 350 wild-type kinases (Homo sapiens, UniProt Q99683); settings: kinase ASK1, ATP 3 µM, singlicate
T13 construct: purchased Reaction Biology (assay service)
Method: as §1

350 wild-type kinases [14] = molecular target: T14, 350 wild-type kinases (Homo sapiens, UniProt Q14004); settings: kinase CDK13/CycK, ATP 0,1 µM, singlicate
T14 construct: purchased Reaction Biology (assay service)
T14 sequence (Q14004 whole entry): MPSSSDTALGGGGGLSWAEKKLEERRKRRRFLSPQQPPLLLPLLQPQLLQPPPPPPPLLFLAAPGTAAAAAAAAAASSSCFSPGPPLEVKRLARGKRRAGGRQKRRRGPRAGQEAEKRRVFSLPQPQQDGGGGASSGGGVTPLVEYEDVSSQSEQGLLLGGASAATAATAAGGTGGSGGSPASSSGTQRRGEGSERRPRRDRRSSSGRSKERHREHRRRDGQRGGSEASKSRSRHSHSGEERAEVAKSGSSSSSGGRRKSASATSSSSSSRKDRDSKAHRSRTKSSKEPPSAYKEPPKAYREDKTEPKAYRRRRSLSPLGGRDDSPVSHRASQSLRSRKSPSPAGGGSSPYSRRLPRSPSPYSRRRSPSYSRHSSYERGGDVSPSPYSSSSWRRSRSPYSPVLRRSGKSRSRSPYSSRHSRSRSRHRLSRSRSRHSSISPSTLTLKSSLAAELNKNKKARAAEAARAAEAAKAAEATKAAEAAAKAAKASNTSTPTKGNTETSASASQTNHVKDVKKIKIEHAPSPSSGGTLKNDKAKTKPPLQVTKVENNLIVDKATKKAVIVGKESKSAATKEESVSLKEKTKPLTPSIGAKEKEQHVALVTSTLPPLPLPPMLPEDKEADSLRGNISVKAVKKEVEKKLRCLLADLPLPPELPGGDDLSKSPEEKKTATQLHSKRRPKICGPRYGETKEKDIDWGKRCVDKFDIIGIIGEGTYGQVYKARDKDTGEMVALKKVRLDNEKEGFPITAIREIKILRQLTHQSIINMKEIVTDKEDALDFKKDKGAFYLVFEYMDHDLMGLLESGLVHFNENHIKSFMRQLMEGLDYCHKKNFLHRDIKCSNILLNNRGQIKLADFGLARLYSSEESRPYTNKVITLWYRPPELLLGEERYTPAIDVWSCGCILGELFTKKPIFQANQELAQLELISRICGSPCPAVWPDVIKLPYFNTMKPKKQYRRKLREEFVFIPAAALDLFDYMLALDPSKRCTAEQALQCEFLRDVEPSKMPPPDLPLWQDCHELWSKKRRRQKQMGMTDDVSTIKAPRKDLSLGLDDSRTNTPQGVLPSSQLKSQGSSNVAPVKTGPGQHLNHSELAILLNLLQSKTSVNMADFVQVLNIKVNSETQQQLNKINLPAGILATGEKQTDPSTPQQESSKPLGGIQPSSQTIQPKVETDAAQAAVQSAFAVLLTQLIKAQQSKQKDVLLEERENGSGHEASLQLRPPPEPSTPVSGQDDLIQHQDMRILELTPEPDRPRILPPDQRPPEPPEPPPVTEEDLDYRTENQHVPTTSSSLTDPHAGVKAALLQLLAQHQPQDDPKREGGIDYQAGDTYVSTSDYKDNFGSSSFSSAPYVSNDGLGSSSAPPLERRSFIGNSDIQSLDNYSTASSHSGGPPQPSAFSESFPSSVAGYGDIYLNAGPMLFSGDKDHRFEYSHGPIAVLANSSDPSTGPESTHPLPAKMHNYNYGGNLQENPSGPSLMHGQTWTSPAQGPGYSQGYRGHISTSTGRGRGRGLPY
Method: as §1

350 wild-type kinases [15] = settings: 10 μM, 350 kinases
Method: as §1

350 wild-type kinases [16] = molecular target: T15, 350 wild-type kinases (Homo sapiens, UniProt Q00537); settings: kinase CDK17/p35NCK, ATP 3 µM, singlicate
T15 construct: purchased Reaction Biology (assay service)
Method: as §1

350 wild-type kinases [17] = molecular target: T16, 350 wild-type kinases (Homo sapiens, UniProt Q00536); settings: kinase CDK16/CycY, ATP 0,3 µM, singlicate
T16 construct: purchased Reaction Biology (assay service)
T16 sequence (Q00536 whole entry): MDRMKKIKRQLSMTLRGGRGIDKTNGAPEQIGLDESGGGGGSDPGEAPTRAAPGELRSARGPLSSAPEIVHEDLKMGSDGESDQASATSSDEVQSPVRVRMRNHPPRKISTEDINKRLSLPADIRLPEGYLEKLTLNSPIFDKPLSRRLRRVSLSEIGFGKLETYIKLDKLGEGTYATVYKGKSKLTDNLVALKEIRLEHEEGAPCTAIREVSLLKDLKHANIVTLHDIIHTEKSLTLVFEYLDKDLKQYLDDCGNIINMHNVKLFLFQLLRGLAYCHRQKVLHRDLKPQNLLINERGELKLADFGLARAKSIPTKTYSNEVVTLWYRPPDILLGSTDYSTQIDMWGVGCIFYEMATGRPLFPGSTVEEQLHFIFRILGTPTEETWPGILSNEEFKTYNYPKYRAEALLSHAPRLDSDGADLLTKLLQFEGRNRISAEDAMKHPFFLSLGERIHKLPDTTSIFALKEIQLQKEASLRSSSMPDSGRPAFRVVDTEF
Method: as §1

350 wild-type kinases [18] = molecular target: T17, 350 wild-type kinases (Homo sapiens, UniProt P48729); settings: kinase CK1alpha1, ATP 0,3 µM, singlicate
T17 construct: purchased Reaction Biology (assay service)
T17 sequence (P48729 whole entry): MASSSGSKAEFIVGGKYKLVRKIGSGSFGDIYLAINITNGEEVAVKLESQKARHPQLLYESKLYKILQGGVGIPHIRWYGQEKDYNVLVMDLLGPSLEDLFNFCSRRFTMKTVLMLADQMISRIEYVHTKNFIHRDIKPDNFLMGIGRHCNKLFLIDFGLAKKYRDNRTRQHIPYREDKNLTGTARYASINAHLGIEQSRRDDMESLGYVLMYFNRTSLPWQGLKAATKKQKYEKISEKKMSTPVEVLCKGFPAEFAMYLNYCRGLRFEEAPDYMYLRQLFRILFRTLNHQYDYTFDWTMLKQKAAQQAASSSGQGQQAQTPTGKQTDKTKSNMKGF
Method: as §1

350 wild-type kinases [19] = molecular target: T18, 350 wild-type kinases (Homo sapiens, UniProt O60566); settings: kinase BUB1B, ATP 0,3 µM, singlicate
T18 construct: purchased Reaction Biology (assay service)
T18 sequence (O60566 whole entry): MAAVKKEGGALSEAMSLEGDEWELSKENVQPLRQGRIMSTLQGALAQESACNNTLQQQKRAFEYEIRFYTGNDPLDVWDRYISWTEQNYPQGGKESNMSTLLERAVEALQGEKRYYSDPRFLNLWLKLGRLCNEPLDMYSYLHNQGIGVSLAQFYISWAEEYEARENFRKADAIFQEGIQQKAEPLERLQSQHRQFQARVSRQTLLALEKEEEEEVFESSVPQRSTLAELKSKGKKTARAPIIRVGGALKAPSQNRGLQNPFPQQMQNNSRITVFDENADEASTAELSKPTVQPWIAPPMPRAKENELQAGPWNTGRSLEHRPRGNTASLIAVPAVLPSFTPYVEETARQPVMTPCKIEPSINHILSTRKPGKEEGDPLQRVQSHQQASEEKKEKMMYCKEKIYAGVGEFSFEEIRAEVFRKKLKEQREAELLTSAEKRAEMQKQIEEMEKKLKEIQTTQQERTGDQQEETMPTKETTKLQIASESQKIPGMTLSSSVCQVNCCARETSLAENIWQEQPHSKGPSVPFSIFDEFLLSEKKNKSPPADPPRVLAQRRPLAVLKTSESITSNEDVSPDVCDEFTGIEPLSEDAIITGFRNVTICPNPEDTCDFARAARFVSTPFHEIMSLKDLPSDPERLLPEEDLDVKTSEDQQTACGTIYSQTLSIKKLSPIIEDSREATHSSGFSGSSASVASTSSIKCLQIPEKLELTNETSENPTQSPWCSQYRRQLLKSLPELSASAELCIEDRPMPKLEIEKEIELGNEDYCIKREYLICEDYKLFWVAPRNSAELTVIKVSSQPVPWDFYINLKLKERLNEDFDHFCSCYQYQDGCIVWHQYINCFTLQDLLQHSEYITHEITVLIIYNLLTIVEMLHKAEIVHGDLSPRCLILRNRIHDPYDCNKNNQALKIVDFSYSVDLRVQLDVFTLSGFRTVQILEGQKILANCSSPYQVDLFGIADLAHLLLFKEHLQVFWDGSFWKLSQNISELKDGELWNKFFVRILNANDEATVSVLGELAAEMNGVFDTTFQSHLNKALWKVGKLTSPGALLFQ
Method: as §1

350 wild-type kinases [20] = molecular target: T19, 350 wild-type kinases (Homo sapiens, UniProt Q9Y6M4); settings: kinase CK1gamma3, ATP 0,1 µM, singlicate
T19 construct: purchased Reaction Biology (assay service)
T19 sequence (Q9Y6M4 whole entry): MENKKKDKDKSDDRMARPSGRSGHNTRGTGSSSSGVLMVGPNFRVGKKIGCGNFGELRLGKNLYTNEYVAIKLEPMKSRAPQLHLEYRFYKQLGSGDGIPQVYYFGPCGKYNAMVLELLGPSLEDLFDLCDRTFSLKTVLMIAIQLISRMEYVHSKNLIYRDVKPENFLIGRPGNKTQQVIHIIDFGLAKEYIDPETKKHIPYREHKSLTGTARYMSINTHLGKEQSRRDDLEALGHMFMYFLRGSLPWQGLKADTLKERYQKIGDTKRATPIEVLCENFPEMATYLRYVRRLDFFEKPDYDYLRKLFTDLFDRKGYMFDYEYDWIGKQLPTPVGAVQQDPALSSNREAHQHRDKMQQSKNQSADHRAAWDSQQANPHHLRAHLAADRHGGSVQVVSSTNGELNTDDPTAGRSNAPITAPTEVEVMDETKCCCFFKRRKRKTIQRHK
Method: as §1

350 wild-type kinases [21] = molecular target: T20, 350 wild-type kinases (Homo sapiens, UniProt Q07002); settings: kinase CDK18/CycY, ATP 1 µM, singlicate
T20 construct: purchased Reaction Biology (assay service)
Method: as §1

350 wild-type kinases [22] = molecular target: T21, 350 wild-type kinases (Homo sapiens, UniProt P36896); settings: kinase ACVR1B, ATP 3 µM, singlicate
T21 construct: purchased Reaction Biology (assay service)
T21 sequence (P36896 24-505): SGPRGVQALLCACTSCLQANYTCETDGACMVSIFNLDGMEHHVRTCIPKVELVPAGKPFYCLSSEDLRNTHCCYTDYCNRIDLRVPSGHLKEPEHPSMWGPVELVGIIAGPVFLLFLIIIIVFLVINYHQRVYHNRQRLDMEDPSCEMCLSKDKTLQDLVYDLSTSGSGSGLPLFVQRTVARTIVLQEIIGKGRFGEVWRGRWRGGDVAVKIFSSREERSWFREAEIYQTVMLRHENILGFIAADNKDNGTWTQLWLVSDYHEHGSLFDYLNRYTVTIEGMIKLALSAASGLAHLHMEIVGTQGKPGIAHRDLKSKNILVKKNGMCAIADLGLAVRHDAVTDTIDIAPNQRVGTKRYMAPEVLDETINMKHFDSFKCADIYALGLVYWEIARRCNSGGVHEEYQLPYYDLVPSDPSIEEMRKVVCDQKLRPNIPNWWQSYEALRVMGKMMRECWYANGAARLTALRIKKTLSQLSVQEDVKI
Method: as §1

350 wild-type kinases [23] = molecular target: T22, 350 wild-type kinases (Homo sapiens, UniProt Q9UM73); settings: kinase ALK, ATP 0,3 µM, singlicate
T22 construct: purchased Reaction Biology (assay service)
Method: as §1

350 wild-type kinases [24] = molecular target: T23, 350 wild-type kinases (Homo sapiens, UniProt Q8N568); settings: kinase DCAMKL2, ATP 1 µM, singlicate
T23 construct: purchased Reaction Biology (assay service)
Method: as §1

CCSc1nc(NC)c2c(-c3cccc(NC(=O)Nc4cc(C(C)(C)C)nn4-c4ccc(C)cc4)c3)c[nH]c2n1 [Compound 32]
Residual activity (% of control), CDK14/CycY (350 wild-type kinases [1]; Assay Conc. 1.0E-05 M): 75 % of control | Residual activity (% of control), CDK14/CycY (350 wild-type kinases [1]; Assay Conc. 1.0E-06 M): 102 % of control | Residual activity (% of control), BTK (350 wild-type kinases [2]; Assay Conc. 1.0E-05 M): 37 % of control | Residual activity (% of control), BTK (350 wild-type kinases [2]; Assay Conc. 1.0E-06 M): 80 % of control | remaining activity at 1 µM (350 wild-type kinases [3]): < 50% | Residual activity (% of control), AKT2 (350 wild-type kinases [4]; Assay Conc. 1.0E-05 M): 88 % of control | Residual activity (% of control), AKT2 (350 wild-type kinases [4]; Assay Conc. 1.0E-06 M): 117 % of control | Residual activity (% of control), AuroraC (350 wild-type kinases [5]; Assay Conc. 1.0E-05 M): 77 % of control | Residual activity (% of control), AuroraC (350 wild-type kinases [5]; Assay Conc. 1.0E-06 M): 105 % of control | Residual activity (% of control), CAMKK2 (350 wild-type kinases [6]; Assay Conc. 1.0E-05 M): 85 % of control | Residual activity (% of control), CAMKK2 (350 wild-type kinases [6]; Assay Conc. 1.0E-06 M): 119 % of control | Residual activity (% of control), DAPK3 (350 wild-type kinases [7]; Assay Conc. 1.0E-05 M): 82 % of control | Residual activity (% of control), DAPK3 (350 wild-type kinases [7]; Assay Conc. 1.0E-06 M): 98 % of control | Residual activity (% of control), CDK8/CycC (350 wild-type kinases [8]; Assay Conc. 1.0E-05 M): 36 % of control | Residual activity (% of control), CDK8/CycC (350 wild-type kinases [8]; Assay Conc. 1.0E-06 M): 91 % of control | Residual activity (% of control), BMPR1A (350 wild-type kinases [9]; Assay Conc. 1.0E-05 M): 85 % of control | Residual activity (% of control), BMPR1A (350 wild-type kinases [9]; Assay Conc. 1.0E-06 M): 97 % of control | Residual activity (% of control), DMPK (350 wild-type kinases [10]; Assay Conc. 1.0E-05 M): 69 % of control | Residual activity (% of control), DMPK (350 wild-type kinases [10]; Assay Conc. 1.0E-06 M): 106 % of control | Residual activity (% of control), DNAPK (350 wild-type kinases [11]; Assay Conc. 1.0E-05 M): 82 % of control | Residual activity (% of control), DNAPK (350 wild-type kinases [11]; Assay Conc. 1.0E-06 M): 99 % of control | Residual activity (% of control), DYRK1A (350 wild-type kinases [12]; Assay Conc. 1.0E-05 M): 48 % of control | Residual activity (% of control), DYRK1A (350 wild-type kinases [12]; Assay Conc. 1.0E-06 M): 75 % of control | Residual activity (% of control), ASK1 (350 wild-type kinases [13]; Assay Conc. 1.0E-05 M): 71 % of control | Residual activity (% of control), ASK1 (350 wild-type kinases [13]; Assay Conc. 1.0E-06 M): 103 % of control | Residual activity (% of control), CDK13/CycK (350 wild-type kinases [14]; Assay Conc. 1.0E-05 M): 71 % of control | Residual activity (% of control), CDK13/CycK (350 wild-type kinases [14]; Assay Conc. 1.0E-06 M): 83 % of control | number of kinases inhibited with less than 30% residual activity (350 wild-type kinases [15]): 10 | Residual activity (% of control), CDK17/p35NCK (350 wild-type kinases [16]; Assay Conc. 1.0E-05 M): 53 % of control | Residual activity (% of control), CDK17/p35NCK (350 wild-type kinases [16]; Assay Conc. 1.0E-06 M): 89 % of control | Residual activity (% of control), CDK16/CycY (350 wild-type kinases [17]; Assay Conc. 1.0E-05 M): 88 % of control | Residual activity (% of control), CDK16/CycY (350 wild-type kinases [17]; Assay Conc. 1.0E-06 M): 113 % of control | Residual activity (% of control), CK1alpha1 (350 wild-type kinases [18]; Assay Conc. 1.0E-05 M): 98 % of control | Residual activity (% of control), CK1alpha1 (350 wild-type kinases [18]; Assay Conc. 1.0E-06 M): 108 % of control | Residual activity (% of control), BUB1B (350 wild-type kinases [19]; Assay Conc. 1.0E-05 M): 85 % of control | Residual activity (% of control), BUB1B (350 wild-type kinases [19]; Assay Conc. 1.0E-06 M): 119 % of control | Residual activity (% of control), CK1gamma3 (350 wild-type kinases [20]; Assay Conc. 1.0E-05 M): 99 % of control | Residual activity (% of control), CK1gamma3 (350 wild-type kinases [20]; Assay Conc. 1.0E-06 M): 106 % of control | Residual activity (% of control), CDK18/CycY (350 wild-type kinases [21]; Assay Conc. 1.0E-05 M): 73 % of control | Residual activity (% of control), CDK18/CycY (350 wild-type kinases [21]; Assay Conc. 1.0E-06 M): 110 % of control | Residual activity (% of control), ACVR1B (350 wild-type kinases [22]; Assay Conc. 1.0E-05 M): 76 % of control | Residual activity (% of control), ACVR1B (350 wild-type kinases [22]; Assay Conc. 1.0E-06 M): 93 % of control | Residual activity (% of control), ALK (350 wild-type kinases [23]; Assay Conc. 1.0E-05 M): 23 % of control | Residual activity (% of control), ALK (350 wild-type kinases [23]; Assay Conc. 1.0E-06 M): 64 % of control | Residual activity (% of control), DCAMKL2 (350 wild-type kinases [24]; Assay Conc. 1.0E-05 M): 91 % of control | Residual activity (% of control), DCAMKL2 (350 wild-type kinases [24]; Assay Conc. 1.0E-06 M): 103 % of control
